Measurements published in patent publication US20120071475A1, “UREA DERIVATIVES HAVING PI3K-INHIBITING ACTIVITY” (SHIONOGI & CO., LTD., priority 2009, published 2012).
In brackets after ≈: the same amount, converted by molar mass.

Columns and labels:
[1] = BA test (oral absorbability, bioavailability); assay type: in vivo
Procedure: An experimental material and a method for examining oral absorbability
(1) Animals used: rats or mice were used. (2) Breeding condition: chow and sterilized tap water were allowed to be taken in freely. (3) Setting of a dosage and grouping: a predetermined dosage was administered orally or intravenously. Groups were formed as shown below. (A dosage varied depending on each compound)
Oral administration 1-30 mg/kg (n=2 to 3)
Intravenous administration 0.5-10 mg/kg (n=2 to 3)
(4) Preparation of administered liquid: In oral administration, a solution or suspension was administered. In intravenous administration, after solubilization, the administration was performed. (5) Method of Administration: In oral administration, compulsory administration to the stomach was conducted using an oral probe. In intravenous administration, administration from the caudal vein was conducted using a syringe with an injection needle. (6) Evaluation item: Blood was chronologically collected, and then the drug concentration in blood plasma was measured using a LC/MS/MS. (7) Statistical analysis: With regard to a shift in plasma concentration, the plasma concentration-time area under the curve (AUC) was calculated using a nonlinear least-squares program WinNonlin®. Bioavailability (BA) was calculated from the AUCs of the oral administration group and the intravenous administration group, respectively.

[2] = Solubility test (artificial intestinal juice pH 6.8, 1% DMSO); assay type: physicochemical; conditions: artificial intestinal juice pH 6.8 with 1% DMSO, fassgf or other biorelevant, kinetic from dmso stock, 25° C.
Procedure: The solubility of a compound was determined under a condition in which 1% DMSO was added. 10 mmol/L compound solution was prepared using DMSO, and then 6 μL of the compound solution was added to 594 μL of artificial intestinal juice in pH 6.8 (to 250 mL of 0.2 mol/L potassium dihydrogen phosphate reagent solution was added 118 mL of 0.2 mol/L NaOH reagent solution and water to provide a final volume of 1000 mL). After standing at 25° C. for 16 hours, the mixed solution was filtered with suction. The filtrate was diluted twice with methanol/water (1/1), and then a concentration in the filtration was measured with HPLC or LC/MS/MS by the absolute calibration method.

[3] = Metabolic stability test (pooled human liver microsome); assay type: in vitro ADME; conditions: percentage of test compound remained after 30 minutes, pooled human liver microsome 0.5 mg protein/mL, 1 mmol/L NADPH, 37° C., compound 0.5 μM
Method in brief: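 Pooled human liver microsomes (0.5 mg protein/mL) incubated with compound and 1 mmol/L NADPH at 37° C. in pH 7.4 Tris buffer for 0 or 30 min. Parent quantified by LC/MS/MS after methanol/acetonitrile quench; value is % remaining at 30 min versus 0 min.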

hERG channel (IKr) = target: T1, hERG channel (IKr) (Homo sapiens, UniProt Q12809); experiment: hERG test (whole-cell patch-clamp, IKr in HEK293 cells); assay type: cell-based; conditions: human, HEK293 cells expressing hERG channel, pH 7.4, inhibition of maximum tail current (IKr), compound 1 μM
T1 construct: expressed in transfected cells; host or cells: HEK293
T1 sequence (Q12809 whole entry): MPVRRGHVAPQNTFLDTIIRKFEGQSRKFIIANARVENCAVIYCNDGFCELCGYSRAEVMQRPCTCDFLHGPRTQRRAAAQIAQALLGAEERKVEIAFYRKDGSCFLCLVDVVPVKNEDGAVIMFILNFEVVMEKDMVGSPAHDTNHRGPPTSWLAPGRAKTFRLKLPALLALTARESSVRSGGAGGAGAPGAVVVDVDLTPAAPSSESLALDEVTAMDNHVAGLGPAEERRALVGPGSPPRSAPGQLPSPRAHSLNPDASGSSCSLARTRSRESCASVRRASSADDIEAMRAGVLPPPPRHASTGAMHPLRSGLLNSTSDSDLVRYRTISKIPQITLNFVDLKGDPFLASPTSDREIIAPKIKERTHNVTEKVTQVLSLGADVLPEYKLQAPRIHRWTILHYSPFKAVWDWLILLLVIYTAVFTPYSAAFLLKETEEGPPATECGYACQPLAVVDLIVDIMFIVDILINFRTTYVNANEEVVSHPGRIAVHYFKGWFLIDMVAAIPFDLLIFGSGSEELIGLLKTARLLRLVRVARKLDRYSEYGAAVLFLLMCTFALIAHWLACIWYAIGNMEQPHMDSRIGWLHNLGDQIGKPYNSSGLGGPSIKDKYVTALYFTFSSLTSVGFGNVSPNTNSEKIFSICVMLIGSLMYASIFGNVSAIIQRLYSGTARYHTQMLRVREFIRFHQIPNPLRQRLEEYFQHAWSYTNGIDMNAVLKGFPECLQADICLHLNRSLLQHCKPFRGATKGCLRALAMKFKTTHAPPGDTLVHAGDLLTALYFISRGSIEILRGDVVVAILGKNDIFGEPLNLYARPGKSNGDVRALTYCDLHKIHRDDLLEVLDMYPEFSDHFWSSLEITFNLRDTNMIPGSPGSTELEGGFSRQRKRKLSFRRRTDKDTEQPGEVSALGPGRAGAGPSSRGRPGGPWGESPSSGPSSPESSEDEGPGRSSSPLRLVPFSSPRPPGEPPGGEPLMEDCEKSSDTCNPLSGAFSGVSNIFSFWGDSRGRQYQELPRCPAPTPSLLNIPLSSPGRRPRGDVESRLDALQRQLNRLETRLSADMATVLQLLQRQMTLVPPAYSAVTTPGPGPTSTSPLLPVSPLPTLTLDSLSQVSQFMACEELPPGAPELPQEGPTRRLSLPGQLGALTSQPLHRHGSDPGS
Method in brief: (§1)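 hERG-expressing HEK293 cells, automated whole-cell patch clamp: hold −80 mV, +50 mV for 2 s, then −50 mV for 2 s to record IKr tail current. Compound in extracellular solution (pH 7.4) for 10 min at room temperature; inhibition of maximum tail current calculated versus pre-application and compared with 0.1% DMSO vehicle.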

[4] = target: T2, human ether-a-go-go related gene (hERG) channel (Homo sapiens, UniProt Q12809); experiment: as above; assay type: cell-based; conditions: inhibition of maximum tail current (IKr), HEK293 cell expressing hERG, compound 1 μM, 10 minutes; 1 µM
T2 construct: expressed in transfected cells; host or cells: HEK293
T2 sequence (Q12809 whole entry): as above
Method in brief: as §1

| hLMS_ox(at 0.5 μM) % [3] [%] | Compound | inhibition at 10 min, 1 µM (hERG channel (IKr)) [%] | also measured |
| --- | --- | --- | --- |
|  | COc1cc(N2CCc3nc(NC(=O)Nc4ccccc4C(=O)NC(C)C)sc3C2)nc(OC)n1 [Compound I-12] |  | BA (Rat, 1 mg/kg, Methylcellulose suspension Oral Administration) [1]: 46.8% |
|  | Cc1nc(NC(=O)Nc2ccccc2C(=O)NC(C)C)sc1-c1csc(S(=O)(=O)N(C)CCN(C)C)c1 [Compound I-191] |  | solubility at 16 h [2]: > 50 µM |
| 88.2 | COc1cc(N2CCc3nc(NC(=O)Nc4ccccc4C(=O)NCCF)sc3C2)nc(OC)n1 [Compound I-88] | 5.7 |  |
| 84.8 | COc1cc(N2CCc3nc(NC(=O)Nc4ccccc4C(=O)NC(C)C(O)C(F)(F)F)sc3C2)nc(OC)n1 (stereo not drawn) [Compound I-139] |  | hERG(at 1 μM) % Inhibition [4]: 8.5% |
| 82.5 | COc1cncc(-c2cc(NC(=O)Nc3ccccc3C(=O)NC(C)C)nn2C)c1 [Compound I-226] |  |  |
|  | COc1nc(Cl)cc(N2CCc3nc(NC(=O)Nc4cnccc4C(=O)NC(C)C)sc3C2)n1 [Compound I-91] | 0.9 |  |
| 92.6 | Cc1nc(NC(=O)Nc2ccccc2C(=O)NC(C)C)sc1-c1ccc(S(C)(=O)=O)c(F)c1 [Compound I-127] | 0.6 |  |
| 87.9 | COc1cc(N2CCc3nc(NC(=O)Nc4cn(C)nc4C(=O)NCC(F)(F)F)sc3C2)nc(OC)n1 [Compound I-148] | 3.3 | BA (Rat, 1 mg/kg, Methylcellulose suspension Oral Administration) [1]: 45.1% |
|  | CC(C)NC(=O)c1ccccc1NC(=O)Nc1nc2c(s1)CN(c1cncc(C(F)(F)F)c1)CC2 [Compound I-131] | 3.9 |  |
| 110 | COc1cc(N2CCc3nc(NC(=O)Nc4ccccc4C(=O)NN4CCN(C)CC4)sc3C2)nc(OC)n1 [Compound I-195] |  | solubility at 16 h [2]: > 50 µM |
|  | CC(C)NC(=O)c1ccccc1NC(=O)Nc1nc2c(s1)CN(c1cccc(S(C)(=O)=O)c1)CC2 [Compound I-198] | 5.9 | solubility at 16 h [2]: 10.1 µM (≈ 5.19 µg/mL) |
| 88.5 | COc1cc(N2CCc3nc(NC(=O)Nc4ccccc4C(=O)NC4CCOCC4)sc3C2)nc(OC)n1 [Compound I-203] | 6.7 |  |
|  | COc1nc(Cl)cc(N2CCc3nc(NC(=O)Nc4ccccc4C(=O)NC4CCCOC4)sc3C2)n1 (stereo not drawn) [Compound I-197] | 4.8 |  |
